ChEMBL document CHEMBL5604062, “ASAP - ZIKV NS2B-NS3 protease fluorescence dose response” (2024)
pIC50: −log10 of the molar value. “And” between values parts separate entries of the source, which are not always exact repeats. Equal entries are not always repeated.

target: Nonstructural protein 3 (Zika virus, UniProt A0A024AXB9); test: Functional biochemical assay to identify treatments for viral infectious disease that targets Zika NS2B-NS3 protease. Utilizing a direct enzyme activity measurement method, reading the fluorescence intensity is used to characterize the relative potency of inhibitors as IC50.; design: species or system PRVABC59
Sequence (A0A024AXB9 whole entry): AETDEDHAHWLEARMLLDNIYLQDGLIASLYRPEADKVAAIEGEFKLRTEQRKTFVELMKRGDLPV

| SMILES | pIC50 |
| --- | --- |
| O=C(O)c1sc2cccnc2c1Br | < 4.00 |
| COc1ccc2c(O)nn(S(=O)(=O)c3ccc(C(=O)O)cc3)c2c1 | < 4.00 |
| NC(=O)c1ccc(Cn2nnc(C=Cc3ccccc3)n2)cc1 | < 4.00 |
| Cc1nnnn1Cc1ncc(Br)s1 | < 4.00 |
| O=C(O)c1c(Br)sc2nnsc12 | 4.40 |
| O=S(=O)(CCOc1ccccc1)c1nccs1 | < 4.00 |
| O=c1[nH]c(CSc2ccccc2Cl)nc2ccsc12 | < 4.00 |
| Cc1nnc(CSc2ncnc3sccc23)o1 | < 4.00 |
| O=c1c2ccccc2nnn1CSc1nnc(-c2ccccc2)o1 | < 4.00 |
| COCc1nn(CC#Cc2ccc(Cl)cc2)c(=O)o1 | < 4.00 |
| [O-][S@@+](Cc1ncccn1)c1ncccc1Br | < 4.00 |
| C[C@H]1CCC[C@H](C(=O)Nc2cccc(CN)c2)O1 | < 4.00 |
| O=S(=O)(c1cccs1)N1CCN(CC=Cc2ccccc2)CC1 | < 4.00 |
| NCCc1ccc(NC(=O)c2cc(Cl)cc(CN)c2)cc1 | 5.09 |
| COCC=Cc1cccc([C@@H](NC(=O)OCc2ccccc2)C(=O)Nc2cccc(CN)c2)c1 | 4.57 |
| O=C(Nc1cc(Cl)cc(C(=O)Nc2cccc(-c3cc[nH]n3)c2)c1)OCc1ccccc1 | < 4.00 |
| NCCc1cc(Cl)cc(C(=O)Nc2cccc(CN)c2)c1 | 6.48 |
| NCc1cccc(NC(=O)[C@@H](NC(=O)OCc2ccccc2)c2cccc(-c3ccc(CN)cc3F)c2)c1 | 4.49 |
| Cn1cc(NC(=O)c2cc(Cl)cc(NC(=O)OCc3ccccc3)c2)cn1 | < 4.00 |
| NCc1cccc(CNC(=O)[C@H]2[C@H]3CCCCC[C@H]3[C@H]2NC(=O)OCc2ccccc2)c1 | 4.91 and 4.22 and 4.57 |
| Brc1ccsc1CSc1cnn[nH]1 | < 4.00 |
| COC(=O)c1cc(NC(=O)OCc2ccccc2)cc(C(=O)Nc2cccc(CN)c2)c1 | 4.25 |
| Clc1snnc1CN1CCC(c2nc3ccccc3o2)CC1 | < 4.00 |

| SMILES | pIC50 |
| --- | --- |
| O=C(Nc1cc(Cl)cc(C(=O)Nc2nccc([C@H]3CCCCN3)n2)c1)OCc1ccccc1 | < 4.00 |
| NCc1cccc(NC(=O)c2cc(Cl)cc(C(N)=O)c2)c1 | 5.87 |
| O=c1oc2cccnc2n1CC=Cc1ccccc1 | < 4.00 |
| Cc1cc(C)c([C@@H](CC(=O)Nc2cccc(CN)c2)NC(=O)OCc2ccccc2)cc1C | 5.25 and 5.20 |
| Cn1cc(-c2cccc([C@@H](NC(=O)OCc3ccccc3)C(=O)Nc3cccc(CN)c3)c2)ccc1=O | 4.13 |
| CC(F)(F)c1cccc(NC(=O)c2cc(Cl)cc(NC(=O)OCc3ccccc3)c2)c1 | < 4.00 |
| Nc1nc(S(=O)(=O)c2ccccc2)c(Cl)s1 | < 4.00 |
| CN(C)[C@@H]1CCC[C@H](C(=O)Nc2cccc(CN)c2)C1 | < 4.00 |
| CN(C)CCC(=O)N1CCC([C@@H](NC(=O)OCc2ccccc2)C(=O)Nc2cccc(CN)c2)CC1 | < 4.00 |
| NCc1cccc(NC(=O)c2cc(Cl)cc3[nH]ncc23)c1 | 6.05 |
| O=C(Nc1cc(Cl)cc(C(=O)Nc2cccc(Cc3nn[nH]n3)c2)c1)OCc1ccccc1 | 4.19 |
| O=c1ccccn1-c1ncc(Br)cn1 | < 4.00 |
| NCc1cccc(NC(=O)[C@@H](NC(=O)OCc2ccccc2)c2cccc(-c3cncnc3)c2)c1 | < 4.00 |
| CC(=O)NCc1cccc(NC(=O)c2cc(Cl)cc(NC(=O)OCc3ccccc3)c2)c1 | < 4.00 |
| Cc1nnsc1Cn1ccc(Br)n1 | < 4.00 |
| C=C(C)c1cccc([C@@H](NC(=O)OCc2ccccc2)C(=O)Nc2cccc(CN)c2)c1 | 5.02 |
| CNCc1cc(Cl)cc(C(=O)Nc2cccc(CN)c2)c1 | 5.85 |
| NCc1cccc(NC(=O)[C@@H](NC(=O)OCc2ccccc2)c2cccc(-c3ccc(N)nc3)c2)c1 | 4.36 |
| O=S1(=O)CCN(CC#Cc2ccc3sncc3c2)CC1 | < 4.00 |
| N#Cc1csc(CSc2nnc(C(F)(F)F)s2)n1 | < 4.00 |
| NCc1cc(NS(=O)(=O)c2ccc(Oc3ccccc3Cl)cc2)ccc1Cl | < 4.00 |
| CN1CC=C(c2cccc([C@@H](NC(=O)OCc3ccccc3)C(=O)Nc3cccc(CN)c3)c2)CC1 | 4.17 |
| NCc1cccc(NC(=O)c2cc(Cl)cc(CN3CCOCC3)c2)c1 | 4.28 |
